{"source": "patent US12649732B2", "about": "“Polymorphs of (R)-N-(5-(5-isopropyl-1,2,4-oxadiazol-3-yl)-2,3-dihydro-1H-inden-1-yl)-2-methyl-2H-tetrazole-5-carboxamide” (Cytokinetics, Inc., priority 2019, dated 2026)", "key": {"[1]": {"system": "cardiac fractional shortening", "assay": "Echocardiography of rat cardiac contractility, continuous IV infusion", "assay_type": "in vivo, Sprague Dawley rats", "conditions": "Mean±S.D., read-out: estimated IC50 (plasma concentration at which fractional shortening is 50% of pre-dose baseline)", "protocol": "(§1) Assessment of in vivo cardiac function by echocardiography was performed in male Sprague Dawley rats under isoflurane (1-3%) anesthesia. 2-D M-mode images of the left ventricle were acquired in the parasternal long-axis view before, during, and after administration of compounds by continuous IV infusion or oral gavage. In vivo fractional shortening was determined by M-mode image analysis with the following calculation: ((End diastolic diameter−end systolic diameter)/end diastolic diameter×100). For continuous IV infusion experiments, three pre-dose baseline M-mode images were taken at 1 minute intervals prior to infusion of compound. Compounds were formulated in 50% Propylene Glycol (PG): 16% Captisol: 10% dimethylacetamide (DMA) and delivered via a jugular vein catheter at the rate of 1 mL/kg/h. During infusion, M-mode images were taken at 5 minute intervals. The infusion stopped when fractional shortening reached up to a 60% reduction from baseline. Blood samples were taken to determine the plasma concentration of the compounds. Data was reported as an estimated IC50 value, which is the concentration at which fractional shortening is 50% of the pre-dose baseline contractility."}, "[2]": {"system": "adult rat ventricular myocytes", "assay": "Myocyte contractility assay (fractional shortening, edge detection)", "assay_type": "cell-based, Sprague-Dawley rats", "conditions": "5 μM, 5 min perfusion, 5 cells tested", "protocol": "Adult male Sprague-Dawley rats were anesthetized and the hearts were quickly excised, rinsed and the ascending aorta was cannulated. Continuous retrograde perfusion was initiated on the hearts at a perfusion pressure of 60 cm H2O. Hearts were first perfused with a nominally Ca^2+-free modified Krebs solution of the following composition: 113 mM NaCl, 4.7 mM KCl, 0.6 mM KH2PO4, 0.6 mM Na2HPO4, 1.2 mM MgSO4, 12 mM NaHCO3, 10 mM KHCO3, 30 mM taurine, 5.5 mM glucose and 10 mM Hepes (all Sigma). This medium is not recirculated and is continually aerated with a 95% O2/5% CO2 mixture. […]\nAliquots of myocytes in Tyrode's buffer were placed in perfusion chambers (series 20 RC-27NE; Warner Instruments) complete with heating platforms. […] Contractility of the myocytes and contraction and relaxation velocities were then recorded using edge detection.\nFive or more individual myocytes were tested per compound from two or more different myocyte preparations. […] These average transients were analyzed using the IonWizard software (IonOptix) to determine changes in diastolic length and fractional shortening. Fractional shortening was calculated as: ((resting length−length at peak contraction) divided by the resting length). The percent change in fractional shortening from baseline was calculated as: ((post-dose fractional shortening/basal fractional shortening)*100). […]"}, "[3]": {"molecular_target": "T1, bovine cardiac myofibrils (Bos taurus, UniProt Q9BE39)", "T1 construct": "full-length cardiac myosin in the context of the native sarcomere; from tissue; host or cells: bovine cardiac left ventricular tissue (Triton X-100 skinned myofibrils)", "T1 sequence (Q9BE39 whole entry)": "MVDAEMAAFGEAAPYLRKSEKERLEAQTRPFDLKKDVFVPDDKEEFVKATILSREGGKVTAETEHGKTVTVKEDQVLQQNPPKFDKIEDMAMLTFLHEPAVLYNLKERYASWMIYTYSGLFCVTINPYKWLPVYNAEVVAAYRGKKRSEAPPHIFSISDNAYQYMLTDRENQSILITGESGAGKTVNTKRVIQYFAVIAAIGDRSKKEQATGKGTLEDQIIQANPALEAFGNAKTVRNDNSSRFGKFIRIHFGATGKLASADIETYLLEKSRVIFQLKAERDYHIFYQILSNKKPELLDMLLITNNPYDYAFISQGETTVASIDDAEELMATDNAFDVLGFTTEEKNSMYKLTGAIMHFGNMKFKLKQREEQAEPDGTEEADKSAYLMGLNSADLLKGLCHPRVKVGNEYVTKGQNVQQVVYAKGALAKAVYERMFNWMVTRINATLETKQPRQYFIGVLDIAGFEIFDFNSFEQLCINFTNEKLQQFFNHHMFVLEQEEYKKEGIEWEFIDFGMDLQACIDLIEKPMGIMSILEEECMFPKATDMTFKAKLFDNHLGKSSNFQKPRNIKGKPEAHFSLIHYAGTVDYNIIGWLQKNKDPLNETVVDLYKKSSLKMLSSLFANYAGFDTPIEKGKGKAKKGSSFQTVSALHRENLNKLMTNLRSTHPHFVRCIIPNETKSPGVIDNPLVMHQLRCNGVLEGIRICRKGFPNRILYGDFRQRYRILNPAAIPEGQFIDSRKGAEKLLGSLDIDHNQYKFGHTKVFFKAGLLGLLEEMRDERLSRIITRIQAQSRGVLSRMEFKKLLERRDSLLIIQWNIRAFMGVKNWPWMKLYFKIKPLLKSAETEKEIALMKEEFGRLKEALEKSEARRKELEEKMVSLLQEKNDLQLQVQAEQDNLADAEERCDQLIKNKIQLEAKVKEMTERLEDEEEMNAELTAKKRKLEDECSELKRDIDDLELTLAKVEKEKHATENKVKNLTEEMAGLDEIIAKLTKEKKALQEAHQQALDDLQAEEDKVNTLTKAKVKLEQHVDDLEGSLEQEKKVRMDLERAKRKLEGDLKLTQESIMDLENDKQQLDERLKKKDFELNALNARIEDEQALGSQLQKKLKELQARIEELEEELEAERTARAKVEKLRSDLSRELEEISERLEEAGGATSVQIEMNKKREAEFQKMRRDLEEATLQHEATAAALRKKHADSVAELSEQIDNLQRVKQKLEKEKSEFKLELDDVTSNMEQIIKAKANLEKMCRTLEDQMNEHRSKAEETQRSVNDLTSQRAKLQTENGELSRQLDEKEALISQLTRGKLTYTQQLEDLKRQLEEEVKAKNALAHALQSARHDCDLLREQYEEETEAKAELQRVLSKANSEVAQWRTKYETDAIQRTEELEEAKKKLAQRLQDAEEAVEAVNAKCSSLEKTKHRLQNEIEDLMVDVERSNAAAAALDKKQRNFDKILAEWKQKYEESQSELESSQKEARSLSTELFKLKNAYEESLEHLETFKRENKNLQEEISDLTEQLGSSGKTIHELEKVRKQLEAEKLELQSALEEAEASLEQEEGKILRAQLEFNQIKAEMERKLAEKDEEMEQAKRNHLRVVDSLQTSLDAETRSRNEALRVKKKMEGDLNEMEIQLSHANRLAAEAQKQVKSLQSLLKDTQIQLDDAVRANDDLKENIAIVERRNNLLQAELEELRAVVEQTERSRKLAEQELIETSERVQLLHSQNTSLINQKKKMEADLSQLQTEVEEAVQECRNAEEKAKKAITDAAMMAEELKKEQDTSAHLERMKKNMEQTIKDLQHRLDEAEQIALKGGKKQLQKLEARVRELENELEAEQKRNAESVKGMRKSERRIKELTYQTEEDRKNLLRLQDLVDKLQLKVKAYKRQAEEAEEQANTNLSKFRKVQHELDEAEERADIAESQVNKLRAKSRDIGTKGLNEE", "T1 sequence (P85100 whole entry partner)": "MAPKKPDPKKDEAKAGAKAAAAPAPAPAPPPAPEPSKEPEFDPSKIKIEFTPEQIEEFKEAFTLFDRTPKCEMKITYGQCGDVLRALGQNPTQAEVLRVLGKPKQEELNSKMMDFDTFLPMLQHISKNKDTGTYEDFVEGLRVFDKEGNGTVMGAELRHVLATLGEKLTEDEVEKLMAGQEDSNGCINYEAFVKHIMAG", "T1 sequence (Q3SZE5 whole entry partner)": "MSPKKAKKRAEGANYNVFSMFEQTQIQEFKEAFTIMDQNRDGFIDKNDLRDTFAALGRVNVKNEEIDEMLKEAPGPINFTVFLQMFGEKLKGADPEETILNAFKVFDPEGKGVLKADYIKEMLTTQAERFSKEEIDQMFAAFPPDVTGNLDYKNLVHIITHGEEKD", "assay": "Skinned bovine cardiac myofibril ATPase assay (PK/LDH-coupled)", "assay_type": "biochemical", "conditions": "steady-state ATPase, Ca2+ giving 75% activation of myofibril ATPase", "protocol": "To evaluate the effect of (R)—N-(5-(5-isopropyl-1,2,4-oxadiazol-3-yl)-2,3-dihydro-1H-inden-1-yl)-2-methyl-2H-tetrazole-5-carboxamide on the ATPase activity of full-length cardiac myosin in the context of the native sarcomere, skinned myofibril assays were performed. Bovine cardiac myofibrils were obtained by homogenizing bovine cardiac left ventricular tissue in the presence of a detergent such as triton X-100. Such treatment removes membranes and a majority of the soluble cytoplasmic proteins but leaves intact the cardiac sarcomeric acto-myosin apparatus. Myofibril preparations retain the ability to hydrolyze ATP in a Ca^2+ regulated manner. […] Small molecule agents were assessed for their ability to inhibit the steady-state ATPase activity of bovine cardiac myofibrils using pyruvate kinase and lactate dehydrogenase (PK/LDH)-coupled enzyme system. This assay regenerates myosin-produced ADP into ATP by oxidizing NADH, producing an absorbance change at 340 nm. Prior to testing small molecule agents, the bovine cardiac myofibrils were assessed for their calcium responsiveness and the calcium concentration that achieves either a 50% (pCa50) or 75% (pCa75) activation of the myofibril system was chosen as the final condition for assessing the inhibitory activity of the small molecule agents."}, "[4]": {"system": "cardiac fractional shortening", "assay": "Echocardiography of rat cardiac contractility, oral dosing", "assay_type": "in vivo, Sprague Dawley rats", "protocol": "as §1, with “contractility. […] For oral dosing studies, three pre-dose baseline M-Mode images were taken at 1 minute intervals prior to compound administration. (R)—N-(5-(5-isopropyl-1,2,4-oxadiazol-3-yl)-2,3-dihydro-1H-inden-1-yl)-2-methyl-2H-tetrazole-5-carboxamide was formulated in a 0.5% hydroxypropyl methylcellulose 2910 (HPMC 2910): 0.1% Tween 80 suspension and delivered as a single dose (5 mL/kg) by oral gavage. Rats were lightly anesthetized for M-Mode echocardiography measurements at select time points over a 24 hour period. Different dose levels were evaluated. The compound effect on cardiac fractional shortening at the highest dose evaluated is presented below as a percent reduction of baseline fractional shortening (=100%). Concurrent with echocardiography measurements, blood samples were taken to determine the corresponding compound plasma concentration.” for “contractility.”"}}}
{"smiles": "CC(C)c1nc(-c2ccc3c(c2)CC[C@H]3NC(=O)c2nnn(C)n2)no1", "note": "[(R)—N-(5-(5-isopropyl-1,2,4-oxadiazol-3-yl)-2,3-dihydro-1H-inden-1-yl)-2-methyl-2H-tetrazole-5-carboxamide]", "values": [{"measurement": "IC50", "setting": "[1]", "value": "2700 ± 120", "unit": "nM"}, {"measurement": "% FS (% reduction from baseline) ± SEM", "setting": "[2]", "value": "67.8 ± −5.4", "unit": "%"}, {"measurement": "IC15 (CDMF75)", "setting": "[3]", "value": 500, "unit": "nM"}, {"measurement": "FS (% reduction from baseline) at 1-2 h post dose (Mean ± S.D.)", "setting": "[4]; 6 mg/kg single oral gavage, 1-2 h post dose", "value": "40 ± 9", "unit": "%"}, {"measurement": "FS (% reduction from baseline) at 4 h post dose (Mean ± S.D.)", "setting": "[4]; 6 mg/kg single oral gavage, 4 h post dose", "value": "18 ± 11", "unit": "%"}, {"measurement": "IC50", "setting": "[4]; Rattus norvegicus, oral dosing, read-out: estimated IC50 (plasma concentration, fractional shortening)", "value": 2900, "unit": "nM"}, {"measurement": "estimated IC10 (plasma concentration, fractional shortening)", "setting": "[4]; oral dosing", "value": 700, "unit": "nM"}]}
